{"source": "ChEMBL document CHEMBL1201862", "about": "“PubChem BioAssay data set” (2004)", "format_in_all_cases": "functional", "key": {"[1]": {"molecular_target": "T1, Apoptotic protease-activating factor 1 (Homo sapiens, UniProt O14727)", "T1 sequence (O14727 whole entry)": "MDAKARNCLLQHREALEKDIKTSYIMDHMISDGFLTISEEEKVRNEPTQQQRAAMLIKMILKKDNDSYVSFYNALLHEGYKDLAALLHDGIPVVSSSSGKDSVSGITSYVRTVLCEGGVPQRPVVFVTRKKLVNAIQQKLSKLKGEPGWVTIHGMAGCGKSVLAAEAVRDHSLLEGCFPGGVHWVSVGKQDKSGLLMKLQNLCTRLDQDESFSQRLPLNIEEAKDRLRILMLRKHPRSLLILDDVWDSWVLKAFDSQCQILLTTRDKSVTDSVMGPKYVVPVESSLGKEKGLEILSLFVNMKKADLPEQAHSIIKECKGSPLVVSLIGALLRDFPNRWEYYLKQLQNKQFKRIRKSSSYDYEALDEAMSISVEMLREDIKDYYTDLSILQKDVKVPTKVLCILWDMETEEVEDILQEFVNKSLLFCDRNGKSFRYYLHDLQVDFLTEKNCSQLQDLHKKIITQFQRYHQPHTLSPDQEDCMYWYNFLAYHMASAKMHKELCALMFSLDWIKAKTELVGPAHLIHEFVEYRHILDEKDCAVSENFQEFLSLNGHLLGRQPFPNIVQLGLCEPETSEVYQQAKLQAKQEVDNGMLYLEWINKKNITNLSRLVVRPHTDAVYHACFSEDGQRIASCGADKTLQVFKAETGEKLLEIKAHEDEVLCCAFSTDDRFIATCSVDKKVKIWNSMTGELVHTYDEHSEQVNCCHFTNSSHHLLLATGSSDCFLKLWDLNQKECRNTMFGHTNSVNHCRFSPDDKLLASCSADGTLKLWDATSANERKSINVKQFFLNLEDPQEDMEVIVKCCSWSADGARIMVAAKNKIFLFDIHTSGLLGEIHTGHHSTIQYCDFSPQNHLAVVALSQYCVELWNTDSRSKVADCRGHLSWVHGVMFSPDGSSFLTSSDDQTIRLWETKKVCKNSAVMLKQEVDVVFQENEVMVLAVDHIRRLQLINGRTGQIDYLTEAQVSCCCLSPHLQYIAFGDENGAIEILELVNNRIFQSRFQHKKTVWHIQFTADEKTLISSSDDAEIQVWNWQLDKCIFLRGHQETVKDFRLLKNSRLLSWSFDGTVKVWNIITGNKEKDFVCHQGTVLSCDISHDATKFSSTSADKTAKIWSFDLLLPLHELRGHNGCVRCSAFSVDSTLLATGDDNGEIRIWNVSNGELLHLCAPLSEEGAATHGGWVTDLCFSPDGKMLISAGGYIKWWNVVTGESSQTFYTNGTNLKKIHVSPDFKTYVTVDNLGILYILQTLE"}, "[2]": {"molecular_target": "Genome polyprotein (dengue virus type 2, UniProt P29990)", "sequence (P29990 2492-3391 limits assumed)": "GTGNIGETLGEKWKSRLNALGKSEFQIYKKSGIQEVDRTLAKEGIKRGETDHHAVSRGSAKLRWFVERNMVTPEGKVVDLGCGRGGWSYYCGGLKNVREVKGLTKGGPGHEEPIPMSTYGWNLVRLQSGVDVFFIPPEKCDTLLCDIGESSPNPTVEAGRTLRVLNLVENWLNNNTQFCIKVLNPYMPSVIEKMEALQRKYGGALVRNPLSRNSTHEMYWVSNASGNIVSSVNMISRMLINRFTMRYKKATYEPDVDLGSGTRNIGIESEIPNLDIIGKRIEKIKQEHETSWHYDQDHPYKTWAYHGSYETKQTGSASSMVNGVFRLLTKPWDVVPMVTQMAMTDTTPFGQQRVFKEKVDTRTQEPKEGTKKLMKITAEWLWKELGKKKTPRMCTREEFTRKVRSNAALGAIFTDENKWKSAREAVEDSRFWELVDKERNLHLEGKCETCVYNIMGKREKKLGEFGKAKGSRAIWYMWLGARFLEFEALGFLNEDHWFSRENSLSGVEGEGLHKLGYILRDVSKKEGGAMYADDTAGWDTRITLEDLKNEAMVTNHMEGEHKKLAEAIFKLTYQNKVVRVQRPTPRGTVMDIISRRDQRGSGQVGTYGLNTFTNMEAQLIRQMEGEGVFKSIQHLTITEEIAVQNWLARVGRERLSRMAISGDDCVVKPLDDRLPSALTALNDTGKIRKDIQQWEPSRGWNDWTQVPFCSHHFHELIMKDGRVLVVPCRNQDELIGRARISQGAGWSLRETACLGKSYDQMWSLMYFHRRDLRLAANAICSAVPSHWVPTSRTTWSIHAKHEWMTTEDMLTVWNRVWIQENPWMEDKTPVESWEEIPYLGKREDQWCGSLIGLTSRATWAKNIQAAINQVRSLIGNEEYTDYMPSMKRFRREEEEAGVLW", "test": "flavivirus cap methylation enzyme inhibition – biochemical, confirmation dose response, primary screen (AID 588689)"}, "[3]": {"molecular_target": "T2, Replicative DNA helicase DnaB (Mycobacterium tuberculosis, UniProt P9WMR3)", "T2 sequence (P9WMR3 whole entry)": "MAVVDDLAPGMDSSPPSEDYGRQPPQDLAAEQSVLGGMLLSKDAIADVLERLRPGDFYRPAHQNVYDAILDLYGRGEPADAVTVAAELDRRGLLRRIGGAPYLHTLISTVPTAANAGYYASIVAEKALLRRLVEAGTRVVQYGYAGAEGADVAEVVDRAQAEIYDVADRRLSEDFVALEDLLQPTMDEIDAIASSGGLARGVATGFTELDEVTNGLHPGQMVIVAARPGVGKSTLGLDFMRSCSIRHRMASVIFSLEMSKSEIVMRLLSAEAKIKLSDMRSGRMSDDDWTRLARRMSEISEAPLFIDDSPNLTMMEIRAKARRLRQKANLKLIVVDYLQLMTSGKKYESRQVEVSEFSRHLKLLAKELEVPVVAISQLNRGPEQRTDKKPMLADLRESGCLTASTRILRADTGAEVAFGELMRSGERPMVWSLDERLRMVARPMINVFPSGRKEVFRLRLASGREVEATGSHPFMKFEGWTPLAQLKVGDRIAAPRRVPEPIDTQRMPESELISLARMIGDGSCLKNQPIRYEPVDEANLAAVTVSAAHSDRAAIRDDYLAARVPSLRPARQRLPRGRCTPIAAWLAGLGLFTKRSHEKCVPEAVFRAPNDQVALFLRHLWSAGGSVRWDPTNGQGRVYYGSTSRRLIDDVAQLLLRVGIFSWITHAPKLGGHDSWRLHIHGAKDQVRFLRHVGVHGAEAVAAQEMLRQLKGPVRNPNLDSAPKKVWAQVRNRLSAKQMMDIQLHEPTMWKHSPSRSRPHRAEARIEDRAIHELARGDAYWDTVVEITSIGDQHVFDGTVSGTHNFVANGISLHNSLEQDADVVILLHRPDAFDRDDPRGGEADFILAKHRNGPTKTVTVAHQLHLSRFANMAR", "test": "DnaB intein splicing inhibitors, dose response, biochemical, cell-free fluorescence (AID 449749)"}, "[4]": {"molecular_target": "T3, Protein RecA (Mycobacterium tuberculosis, UniProt P9WHJ3)", "T3 sequence (P9WHJ3 whole entry)": "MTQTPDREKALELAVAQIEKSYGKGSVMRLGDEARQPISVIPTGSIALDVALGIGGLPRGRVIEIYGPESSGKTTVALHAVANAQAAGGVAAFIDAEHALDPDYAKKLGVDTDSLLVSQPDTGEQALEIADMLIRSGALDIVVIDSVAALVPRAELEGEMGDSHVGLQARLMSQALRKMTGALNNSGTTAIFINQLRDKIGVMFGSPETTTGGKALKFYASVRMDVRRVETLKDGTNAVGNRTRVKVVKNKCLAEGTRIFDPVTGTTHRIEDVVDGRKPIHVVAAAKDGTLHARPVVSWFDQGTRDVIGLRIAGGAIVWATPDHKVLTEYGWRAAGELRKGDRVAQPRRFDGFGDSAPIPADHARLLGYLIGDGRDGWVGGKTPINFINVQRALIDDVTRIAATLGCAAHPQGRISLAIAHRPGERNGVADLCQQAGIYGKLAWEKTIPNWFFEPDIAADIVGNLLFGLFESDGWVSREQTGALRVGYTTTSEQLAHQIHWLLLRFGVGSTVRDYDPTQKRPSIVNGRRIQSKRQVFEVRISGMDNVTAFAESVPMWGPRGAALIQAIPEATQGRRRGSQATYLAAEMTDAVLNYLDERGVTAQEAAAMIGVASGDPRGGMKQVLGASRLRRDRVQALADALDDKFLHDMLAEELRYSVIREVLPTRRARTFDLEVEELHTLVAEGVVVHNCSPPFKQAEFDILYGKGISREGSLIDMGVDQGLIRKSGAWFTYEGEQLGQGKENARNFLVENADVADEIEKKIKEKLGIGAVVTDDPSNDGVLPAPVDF", "test": "Fluorescence Cell-Free Homogeneous Dose Retest to Identify Inhibitors of RecA-Intein Splicing Activity. [Related pubchem assays (depositor defined):AID2097, AID2223, AID489010, AID492950]"}}, "note": "Calls of active or inactive are those of the source.", "data": [{"smiles": "COc1cc(-c2ccc(Nc3ccccc3C(=O)O)c(OC)c2)ccc1Nc1ccccc1C(=O)O", "values": [{"measurement": "IC50", "setting": "[1]", "value": "26.7 µM (active)"}, {"measurement": "IC50", "setting": "[2]", "value": "18.8 µM (active)"}]}, {"smiles": "COC(CNC(=O)c1ccc2c3c(onc13)-c1ccccc1C2=O)OC", "values": [{"measurement": "AC50", "setting": "[3]", "value": "3.06 µM (active)"}, {"measurement": "IC50", "setting": "[1]", "value": "25.2 µM (active)"}, {"measurement": "EC50", "setting": "[4]", "value": "5.99 µM (active)"}, {"measurement": "IC50", "setting": "[2]", "value": "4.67 µM (active)"}]}, {"smiles": "Cc1ccc2nc(/C(C#N)=C\\c3ccc([N+](=O)[O-])o3)[nH]c2c1", "values": [{"measurement": "EC50", "setting": "[4]", "value": "0.454 µM (active)"}]}, {"smiles": "COc1ccc(OC)c(Nc2cc3ccccc3c(O)n2)c1", "values": [{"measurement": "AC50", "setting": "[3]", "value": "> 120 µM (inconclusive)"}, {"measurement": "IC50", "setting": "[1]", "value": "2.5 µM (active)"}, {"measurement": "EC50", "setting": "[4]", "value": "1.34 µM (active)"}]}, {"smiles": "O=C(O)c1ccc(NC2=C/C(=N/S(=O)(=O)c3ccccc3)c3ccccc3C2=O)cc1", "values": [{"measurement": "IC50", "setting": "[1]", "value": "3.15 µM (active)"}, {"measurement": "IC50", "setting": "[2]", "value": "17.1 µM (active)"}]}, {"smiles": "Nc1ccc2c(c1)C(=O)C(=O)c1ccccc1-2", "values": [{"measurement": "AC50", "setting": "[3]", "value": "5.32 µM (active)"}, {"measurement": "IC50", "setting": "[1]", "value": "0.768 µM (active)"}, {"measurement": "EC50", "setting": "[4]", "value": "6.36 µM (active)"}]}]}
